ChEMBL document CHEMBL4834435, “Discovery of Potent Coumarin-Based Kinetic Stabilizers of Amyloidogenic Immunoglobulin Light Chains Using Structure-Based Design” (J Med Chem, 2021)

Legend:
[1] = biological target: Immunoglobulin lambda variable 6-57 (Homo sapiens, UniProt P01721); test: Stabilization of AL patient derived full length fluorescein-labeled IGLV6-57 expressed in Escherichia coli BL21 (DE3) measured after 24 hrs by proteolysis coupled-fluorescence polarization assay
[2] = biological target: Immunoglobulin lambda variable 6-57 (Homo sapiens, UniProt P01721, F49Y/T46L); test: Stabilization of AL patient derived fluorescein-labeled IGLV6-57 T46L/F49Y mutant measured after 24 hrs by proteolysis coupled-fluorescence polarization assay
[3] = Protein binding in human plasma at 2 uM after 4 hrs by UPLC-MS/MS analysis; type: ADME, cell-free
[4] = Solubility of the compound; type: physicochemical

Sequence of Immunoglobulin lambda variable 6-57 (Homo sapiens, UniProt P01721, F49Y/T46L) (P01721 whole entry, looked up, stated change not applied): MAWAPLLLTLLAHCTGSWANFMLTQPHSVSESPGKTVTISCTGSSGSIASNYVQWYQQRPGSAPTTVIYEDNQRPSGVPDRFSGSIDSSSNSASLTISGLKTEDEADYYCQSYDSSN
Sequence of Immunoglobulin lambda variable 6-57 (Homo sapiens, UniProt P01721) (P01721 whole entry): as the sequence (P01721 whole entry, looked up, stated change not applied) above

Structure (SMILES)	EC50 [1] [nM]	EC50 [2] [nM]	PPB [3] [%]	solubility [4]
CCN(CC)c1ccc2c(C)c(CCN3C(=O)NC4(CCN(S(=O)(=O)c5ccccc5)C4)C3=O)c(=O)oc2c1 (stereo not given)	207	648		
Cc1cc(=O)oc2cc(OC(C)Cc3ccccc3)ccc12 (stereo not given)	2970	1380		
CCN(CC)c1ccc2c(C)c(CCN3C(=O)NC4(CCN(C(=O)c5ccc[nH]c5=O)C4)C3=O)c(=O)oc2c1 (stereo not given)		3960		
CCN(CC)c1ccc2c(C)c(CCN3CC4(CCN(c5nccn6ccnc56)CC4)NC3=O)c(=O)oc2c1	35.6	4.9	> 99.5	
CCN(CC)c1ccc2c(C)c(CCOC(=O)NCc3cccc(-c4ccc[nH]c4=O)c3)c(=O)oc2c1	151	26.2		
CCN(CC)c1ccc2c(C)c(CCN3C(=O)NC4(CCN(c5ncccn5)CC4)C3=O)c(=O)oc2c1	292	165		
CCCN(CC)c1ccc2c(C)cc(=O)oc2c1	7890			
CCN(CC)c1ccc2c(C)c(CCN3C(=O)NC4(CCN(c5nccn6ncnc56)CC4)C3=O)c(=O)oc2c1	71.1	55.2		
CCN(CC)c1ccc2c(C)c(CCOC(=O)NCCc3cccnc3)c(=O)oc2c1	1110	3680		
CCN(C)c1ccc2c(C)cc(=O)oc2c1	18000			
CCN(CC)c1ccc2c(C)c(CCOC(=O)NCc3ccccc3)c(=O)oc2c1	302	317		
CCN(CC)c1ccc2c(C)c(CCN3C(=O)NC4(CCN(c5ncnc6[nH]cnc56)CC4)C3=O)c(=O)oc2c1	110	46		
CCN(CC)c1ccc2c(C)c(CCOC(=O)NCc3cccc(C(N)=O)c3)c(=O)oc2c1	150	228		
CCN(CC)c1ccc2c(C)c(CCN3C(=O)NC4(CCN(c5ncnc6[nH]cnc56)C4)C3=O)c(=O)oc2c1 (stereo not given)	551	355		
CCN(CC)c1ccc2c(C)c(CCN3CC4(CCN(c5ncccn5)CC4)NC3=O)c(=O)oc2c1	48.1	13.5		
CCN(CC)c1ccc2c(C)c(CCOC(=O)NCC3CCCNC3)c(=O)oc2c1 (stereo not given)	1690	8800		
CCN(CC)c1ccc2c(C)c(CCN3C(=O)NC4(CCN(c5ncccn5)C4)C3=O)c(=O)oc2c1 (stereo not given)	1370	688		

Structure (SMILES)	EC50 [1] [nM]	EC50 [2] [nM]	PPB [3] [%]	solubility [4]
CCN(CC)c1ccc2c(C)c(CCN3C(=O)NC4(CCN(c5ncnc6[nH]ncc56)CC4)C3=O)c(=O)oc2c1	103	124		
CCN(CC)c1ccc2c(C)c(CCN3C(=O)NC4(CCN(c5nccn6ccnc56)CC4)C3=O)c(=O)oc2c1	62.4	29.8		
CCN(CC)c1ccc2c(C)c(CCN3CC4(CCN(c5ncnc6[nH]ncc56)CC4)NC3=O)c(=O)oc2c1	8.8	4.7		
CCN(CC)c1ccc2c(C)c(CCN3C(=O)NC4(CCN(S(=O)(=O)c5cccnc5)C4)C3=O)c(=O)oc2c1 (stereo not given)	313	4370		
CCN(CC)c1ccc2c(C)c(CCN3C(=O)NC4(CCN(C(=O)c5c[nH]cn5)C4)C3=O)c(=O)oc2c1 (stereo not given)	855	729		
CCN(CC)c1ccc2c(C)c(CCOC(=O)NCc3cccc(NC(C)=O)c3)c(=O)oc2c1	289	194		
CCN(CC)c1ccc2c(C)c(CCOC(=O)N(C)CCc3cccnc3)c(=O)oc2c1	5280	> 20000		
Cc1cc(=O)oc2cc(OCC(C)c3ccccc3)ccc12 (stereo not given)	558	444		
CCN(CC)c1ccc2c(C)c(CCOC(=O)NCc3cncc(NC(C)=O)c3)c(=O)oc2c1	816	1170		
CCN(CC)c1ccc2c(C)c(CCN3C(=O)NC4(CCN(C(=O)c5ccc[nH]c5=O)CC4)C3=O)c(=O)oc2c1	3970	2700		
C#CCN(CC#C)c1ccc2c(C)cc(=O)oc2c1	2000			
C#CCN(CC)c1ccc2c(C)cc(=O)oc2c1	2650			
CCN(c1ccc2c(C)cc(=O)oc2c1)C(C)C	9700			
Cc1ccccc1C(C)Oc1ccc2c(C)cc(=O)oc2c1 (racemic)				Nd(Insoluble)
Cc1c(CCN2CC3(CCN(c4nccn5ccnc45)CC3)NC2=O)c(=O)oc2cc(OCC(C)c3ccccc3)ccc12 (stereo in doubt; 84a)	8.6	8.3		
Cc1c(CCN2CC3(CCN(c4nccn5ccnc45)CC3)NC2=O)c(=O)oc2cc(OCC(C)c3ccccc3)ccc12 (stereo in doubt; 84b)	11.5	3.9		
